Several values for one entry are separate records, joined by “and”; a condition that tells them apart may be missing. Equal values may be shown once.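 Assay format: 96-well plates, 48-hour exposure. GI50 is the concentration that inhibits growth by half. The concentration for full growth arrest is given as TGI.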 Where only a bound is given, the exact number is not on record here.

What all share (assay): NCI tumour cell line growth inhibition, 48 h
In assay [1] the test system is SNB-19 CNS.
Assay [2] relates to RXF 393 renal.
In assay [3] the test system is A498 renal.
The test system of assay [4] is SF-539 CNS.
The test system of assay [5] is MDA-MB-435.
Assay [6] relates to SK-OV-3 ovarian.
Assay [7] has as its system HS 578T breast.
Assay [8] relates to M14 melanoma.
Assay [9] relates to NCI-H226 lung.
The test system of assay [10] is OVCAR-5 ovarian.

For the compound `Cc1cc(Nc2cc(N)ncn2)c(=O)n2c1C(=O)NC21CCCCC1`, the GI50 in [1] was more than 100 µM; in [2], 37.7 µM; in [3] it was 50.7 µM; in assay [4], 94.6 µM; in [5] it was more than 100 µM; in assay [6], 62 µM. Moreover, the GI50 in assay [7] was 54.3 µM; in assay [8], more than 100 µM; in assay [9] it was more than 100 µM; in assay [10], more than 100 µM. The TGI in assay [1], in assay [2], in assay [3], in [4], in assay [5] and in assay [6] was more than 100 µM each time. Moreover, the TGI in [7], in [8], in assay [9] and in assay [10] was more than 100 µM in each case.
Consider `CC#Cc1nc(Nc2cc(C)[nH]n2)c2ccccc2n1`, for which the GI50 was 19.8 µM in [1]; 7.57 µM and 1.67 µM in [2]; 3.93 µM and 1.08 µM in [3]; 3.81 µM in assay [4]; 3.18 µM in [5]; 5.19 µM in [6]. Also, the GI50 in assay [7] is 2.28 µM; in assay [8] it was 4.34 µM; in [9], 2.21 µM; in [10], 5.69 µM. For the same compound, the TGI in assay [1] was found to be 50.7 µM; in [2], 4.96 µM; in [3], 2.75 µM; in assay [4], 17.6 µM; in assay [5], 13.3 µM; in assay [6], 61.3 µM. Besides, the TGI in assay [7] came out at 8.41 µM; in assay [8], 23.8 µM; in [9], 11.1 µM; in assay [10], 30.7 µM.
As to `COc1ccc(Cn2cc3c(c2-c2cc(OC)c(OC)c(OC)c2)CCc2cnoc2-3)cc1`, the GI50 in assay [1] is 0.502 µM; in assay [2], 0.26 µM; in assay [3], 0.162 µM; in assay [4] it was 0.283 µM; in [5], 0.0404 µM; in assay [6], 0.365 µM. Moreover, the GI50 in assay [7] is 0.238 µM; in assay [8], 0.216 µM; in [9] it was 1.58 µM; in assay [10] it was 3.68 µM. Besides, the TGI in [1] is more than 100 µM; in [2], more than 100 µM; in [3] it was 0.726 µM; in [4], 2.39 µM; in [5], 0.208 µM; in assay [6], more than 100 µM. In addition, the TGI is 0.805 µM in assay [7], 0.87 µM in assay [8], more than 100 µM in [9] and more than 100 µM in assay [10].
`C=C1C(=O)O[C@H]2[C@H]1CC/C(COC(=O)NCc1ccc(Cn3c(=O)sn(-c4ccccc4)c3=O)cc1)=C\CC[C@@]1(C)O[C@@H]21`: the GI50 in assay [1] was 4.26 µM; in assay [2] it was 1.75 µM; in [3], 3.91 µM; in assay [4], 1.57 µM; in assay [5], 2.07 µM; in assay [6], 14.1 µM. Besides, the GI50 in assay [7] is 4.14 µM; in assay [8] it was 1.8 µM; in assay [9], 14.8 µM; in assay [10], 2.51 µM. For the same compound, the TGI in [1] is 16.1 µM; in [2] it was 3.4 µM; in assay [3], 14.5 µM; in [4] it was 3.06 µM; in [5], 4.2 µM; in assay [6], 27.4 µM. For the same compound, the TGI in assay [7] worked out at 33.1 µM; in assay [8], 3.58 µM; in assay [9], 35.2 µM; in assay [10], 6.73 µM.
`C=CC1=C(C)C2=NC1=CC1=NC(=C(CC)/C1=C\O)C=C1N=C3C(=C1C)C(=O)[C@H](C(=O)OC)C3=C1NC(=C2)[C@@H](C)[C@@H]1CCC(=O)O`: the TGI in assay [1] is more than 100 µM; in assay [2], 13.3 µM; in [3] it was more than 100 µM; in [4], more than 100 µM; in assay [5], more than 100 µM; in [6], more than 100 µM. Further, the TGI in assay [7], in assay [8], in assay [9] and in assay [10] was more than 100 µM each time.
On to `O=[N+]([O-])c1cccc2nccc(NCCCO)c12`, for which the TGI in [1] was found to be 69.5 µM; in assay [2], 21.5 µM; in assay [3], 23.6 µM; in assay [4], 29.4 µM; in assay [5], 26.9 µM; in [6], 61 µM. Moreover, the TGI in assay [7] came to 43.3 µM; in [8], 25.6 µM; in [9] it was 50.6 µM; in [10], 35.6 µM.
For `CCCCCCCCCCCCCCCC1=NC(C)(C)CN1C(C)C`, the GI50 is 2.04 µM in assay [1]; 1.52 µM in assay [2]; 2.41 µM in assay [3]; 1.63 µM in assay [4]; 1.44 µM in [5]; 1.85 µM in assay [6]. Moreover, the GI50 in [7] was 1.62 µM; in assay [8], 1.57 µM; in assay [9] it was 2.13 µM; in assay [10] it was 1.55 µM. Moreover, the TGI in [1] was 5.02 µM; in assay [2], 2.96 µM; in [3], 6.24 µM; in [4], 2.98 µM; in assay [5] it was 2.93 µM; in [6] it was 3.57 µM. Further, the TGI was determined as 3.87 µM in assay [7], 2.91 µM in assay [8], 6.6 µM in assay [9] and 2.93 µM in assay [10].
Turning to `C/C(=N\NC(=S)N(C)C)c1ccccn1`, the GI50 in assay [1] is 0.011 µM; in assay [4], 0.0516 µM; in [5] it was 0.00401 µM; in [8], 0.00884 µM; in [9], 0.0645 µM. The TGI was 16.3 µM in [1]; 13.4 µM in assay [2]; 8.11 µM in assay [3]; 2.77 µM in assay [4]; 18.5 µM in assay [5]; 0.889 µM in [6]. For the same compound, the TGI in [7] was determined as 37.2 µM; in assay [8], 11.5 µM; in assay [9], 5.1 µM; in assay [10], 6.85 µM.
